Results from patent US6660762B2, “Methods and compositions to treat lung diseases” (priority 2001, dated 2003).
Entries after “also recorded” stand apart in the source; their conditions may differ. Where two headings read alike, the source gives them in different places. Marks after values point to notes of the source that are not given here.

Experiments:
C3H/HEJ mice = assay: Toxicity of aerosolized porphyrins in mice (group bodyweight); format: in vivo
Source text: Toxicity of the three porphyrins were studied. Porphyrins were delivered via aerosols into mice. It is considered that beryllium-lung burdened mice will provide in vivo data for the removal of beryllium via urinary secretion tests.
Aqueous solutions of the three porphyrins were aerosolized using a constant-flow Pulmo-Mist pump and nebulizer syste and delivered into cages each housing five female 20+ week old C3H/HEJ mice over a period of twenty days. The group bodyweights of these mice were measured each morning prior to aerosol treatment. Regimens included multiple, constant dosing and dose escalation. Mice in cages receiving multiple doses of 9 mg of one of the select porphyrins began to lose weight (up to 14%) by the third day of treatment. […] Treatments with two porphyrins generally reflected lower and delayed evidence of toxicity compared to that observed with one of the select porphyrins (phthalocyanine tetrasulfonate porphyrin, meso-tetra (4-carboxyphenyl) porphyrin, meso-tetra (4-sulfonatophenyl) porphyrin). Younger mice (about 6 weeks old) were generally more tolerant than older mice, but the rank order of porphyrin toxicity was the same.

[1] = molecular target: T1, Beryllium bound to oxyhemoglobin (Be—Hb) (Homo sapiens, UniProt P68871+P69905); assay: Chelation of hemoglobin bound beryllium by porphyrins (removal of beryllium from Be-Hb); format: binding; settings: for effect on amount of beryllium associated with hemoglobin (in words): incubation of Be-Hb with porphyrin
T1 construct: purchased Sigma H7379
Protocol: Beryllium bound to oxyhemoglobin (Be—Hb) was prepared as described in Section 2.1 (above). To determine if the test porphyrins were able to remove beryllium from hemoglobin, porphyrins were added to the hemoglobin solution at 2.5 times the Be concentration of the solution. One hundred μl of 7.1 mM porphyrin solution (or 100 μl of HBS for controls) was added to 1 ml of […]. This mixture was incubated at 37° C. for 30 minutes. Following incubation, the entire mixture was loaded into a Centricon YM-30 molecular weight cutoff filter. This filter retains molecules with a molecular weight >30,000 (i.e., hemoglobin) and allows smaller molecules (i.e. porphyrin, free beryllium) to pass through. The samples were centrifuged to concentrate hemoglobin on the filter and then washed with 500 μl of HBS to remove any porphyrin or beryllium trapped in the hemoglobin concentrate. Hemoglobin concentrates were collected in 100 μl of HBS according to the manufacturer's instructions. The concentrates were then diluted to 3 mls with HBS. Hemoglobin concentration of each sample was determined spectrophotometrically with Drabkin's reagent. Beryllium content of each sample was determined by ICP-AAS.

[2] = Binding of beryllium to porphyrins by proton NMR in deuterium oxide; settings: no buffer
Protocol: Initial experiments utilized HBS prepared in deuterium oxide (deuterated water, D2O) to eliminate the protons of water. This was not successful as the HEPES in the buffer also contains protons that interfered with the analysis. Therefore, experiments were conducted with porphyrins 1-5 dissolved in deuterium oxide. Porphyrins were analyzed in the presence and absence of beryllium-Spectra were collected on a 500 MHz JEOL.

Human hemoglobin = molecular target: T2, Human hemoglobin (Homo sapiens, UniProt P68871+P69905); assay: Binding of beryllium to various hemoglobins (Sephadex G-25 separation, ICP-AAS); settings: incubation at 37° C. for 30 minutes; Be:Hb 2.5:1
T2 construct: purchased Sigma H7379
Protocol: These experiments used beryllium nitrate (Aldrich 46,503-8) as a soluble form of beryllium. […] This precipitate was probably an insoluble beryllium phosphate complex. Due to the insolubility of beryllium in PBS at necessary concentrations, experiments were carried out in N-2hydroxyethylpiperazine-N′-2-ethane-sulfonic acid (HEPES)-buffered saline (HBS). HEPES is commonly used as a buffer for biochemical experiments in the physiological pH range. HBS contained 10 mM HEPES, sodium chloride, and potassium chloride, pH 7.4.
Human hemoglobin (Sigma H7379) was dissolved in HBS at a concentration of 40 mg/ml. This hemoglobin was >95% methemoglobin. To reduce the iron and form oxyhemoglobin, 5 mM sodium hydrosulfite was added to the hemoglobin solution. This solution was then dialyzed overnight at 4° C. against HBS to remove residual sodium hydrosulfite. To form carboxyhemoglobin, oxyhemoglobin was gently bubbled with carbon monoxide for 5 minutes. Identity of hemoglobins was confirmed by spectrophotometry prior to experimentation.
Beryllium nitrate was added to a solution of hemoglobin at a molar ratio of 2.5:1 (B e: Hb). This mixture was incubated at 37° C. for 30 minutes. During incubation with beryllium some precipitation of hemoglobin occurred. Precipitate was removed from the samples by centrifugation. Samples of hemoglobin with no beryllium were used as negative controls. Experiments were performed on oxy-, met-, and carboxyhemoglobin.
To isolate beryllium bound to hemoglobin (Be—Hb) from free beryllium, samples were passed through a 1 cm×25 cm Sephadex G-25 column equilibrated in HBS. One milliliter fractions of column eluate were collected. These fractions were diluted to 5 ml with distilled water. The hemoglobin content of each fraction was determined by use of Drabkin's reagent. Beryllium content of each fraction was determined by inductively coupled plasma atomic absorption spectrophotometry (ICP-AAS). A flow chart of this procedure is presented as FIG. 1.

T2 sequence (P69905 2-142 limits assumed): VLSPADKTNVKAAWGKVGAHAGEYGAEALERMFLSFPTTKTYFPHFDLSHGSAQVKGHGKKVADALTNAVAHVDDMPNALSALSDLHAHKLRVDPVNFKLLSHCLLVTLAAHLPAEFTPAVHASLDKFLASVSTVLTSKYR
T2 sequence (P68871 2-147 limits assumed): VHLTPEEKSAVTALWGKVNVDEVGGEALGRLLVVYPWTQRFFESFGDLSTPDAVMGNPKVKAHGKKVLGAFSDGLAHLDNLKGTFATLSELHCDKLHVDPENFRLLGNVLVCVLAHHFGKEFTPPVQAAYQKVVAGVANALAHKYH
T1 sequence (P69905 2-142 limits assumed): as the sequence (P69905 2-142 limits assumed) above
T1 sequence (P68871 2-147 limits assumed): as the sequence (P68871 2-147 limits assumed) above

Compound	toxicity / safety of aerosol delivery to lungs (in words) (C3H/HEJ mice)	effect on amount of beryllium associated with hemoglobin (in words) [1]	Molar ratio (moles Be:moles Hb) Mean (Human hemoglobin)	μg beryllium/mg hemoglobin Mean (Human hemoglobin)	other results
O=C(O)c1ccc(-c2c3nc(c(-c4ccc(C(=O)O)cc4)c4ccc([nH]4)c(-c4ccc(C(=O)O)cc4)c4nc(c(-c5ccc(C(=O)O)cc5)c5ccc2[nH]5)C=C4)C=C3)cc1 [porphyrin 2, meso-tetra (4-carboxyphenyl) porphyrin]	maybe safely delivered as aerosols; also recorded: non-toxic	reduced the amount of beryllium associated with hemoglobin	–	–	–
phthalocyanine tetrasulfonate [porphyrin 3]	maybe safely delivered as aerosols	reduced the amount of beryllium associated with hemoglobin	–	–	reduction of the amount of beryllium associated with hemoglobin ([1]; molar excess of porphyrin, 30 minutes at 37° C.): 59%; change in proton NMR spectra on addition of beryllium [2]: suggest a reaction of beryllium with the porphyrin
Methemoglobin: Human hemoglobin (Sigma H7379), >95% methemoglobin, iron in the +III oxidation state	–	–	0.13a moles Be:moles Hb	0.016^a μg beryllium/mg hemoglobin	–
O=S(=O)(O)c1ccc(-c2c3nc(c(-c4ccc(S(=O)(=O)O)cc4)c4ccc([nH]4)c(-c4ccc(S(=O)(=O)O)cc4)c4nc(c(-c5ccc(S(=O)(=O)O)cc5)c5ccc2[nH]5)C=C4)C=C3)cc1 [porphyrin 4, meso-tetra (4-sulfonatophenyl) porphyrin]	maybe safely delivered as aerosols	reduced the amount of beryllium associated with hemoglobin	–	–	toxicity / safety of aerosol delivery to lungs (in words) (C3H/HEJ mice; listed as meso-tetra-(4-sulfonate phenyl)): non-toxic
hemin [porphyrin 1]	–	reduced the amount of beryllium associated with hemoglobin	–	–	–
magnesium phthalocyanine tetrasulfonate tetra sodium salt porphyrin [porphyrin 5]	–	reduced the amount of beryllium associated with hemoglobin	–	–	change in proton NMR spectra on addition of beryllium [2]: suggest a reaction of beryllium with the porphyrin
Carboxyhemoglobin: oxyhemoglobin gently bubbled with carbon monoxide for 5 minutes	–	–	1.88 moles Be:moles Hb	0.351 μg beryllium/mg hemoglobin	–
Oxyhemoglobin: Human hemoglobin reduced with sodium hydrosulfite, iron in the +II oxidation state	–	–	2.25 moles Be:moles Hb	0.438 μg beryllium/mg hemoglobin	–
